# Results from EP4559911A1, “NOVEL HETEROCYCLIC COMPOUND AND PHARMACEUTICAL COMPOSITION FOR INHIBITING AUTOTAXIN COMPRISING THE SAME” (Nextgen Bioscience Co., Ltd., priority 2022, dated 2024).
# Biological target: human Autotaxin protein (Homo sapiens, UniProt Q13822)
# Assay: Evaluation of the inhibitory activity against human Autotaxin protein (18:1 LysoPC substrate, choline assay kit, absorbance at 570 nm)
# Type: biochemical
# Conditions: compound at 500nM; 2 hours at 37 °C; % inhibition = (1 - absorbance test group / absorbance control group) X 100
# Method: Solutions of each compound synthesized (80 uM, 100% dimethyl sulfoxide) were sequentially diluted 5-fold with dimethyl sulfoxide to prepare 6 concentrations. Each concentration of the compound was diluted 2-fold with 1x test buffer (50 mM Tris-Cl (pH 8.0), 5 mM KCl, 1 mM CaCl2, 1 mM MgCl2, 140 mM NaCl, deionized water, 1 mg/mL BSA), and 1 uL (1.25% dimethyl sulfoxide) of this diluted mixture was dispensed into each well of a 96-well clear round-bottom plate. 9 uL of 1x test buffer was added, and 20 uL of 240 nM human autotaxin protein (buffer: 50 mM Tris-HCl, pH 8.0, with 150 mM sodium chloride and 20% glycerol) was added. 10 uL of sonicated 360 uM 18:1 LysoPC (diluted with 1x assay buffer) was added. The reaction was performed for 2 hours in a shaking incubator at 37 °C, and a secondary reaction mixture (choline assay kit, KA1662) (65 uL of 1x assay buffer: 1 uL of choline oxidase: 1 uL of dye probe) was prepared. 60 uL of the secondary reaction mixture was added to the plate where the reaction was performed, and incubated for 30 minutes in a shaker. The absorbance value was measured at a wavelength of 570 nm using a SpectraMax iD3 microplate reader. The percentage inhibition activity value (% inhibition) was calculated by the formula: (1 - absorbance value test group / absorbance value control group) X 100.
row,SMILES,inhibition at 0.5 µM
1,"Fc1cc2c(cc1F)CC(Nc1ncc(-c3nnc(N4CCC(n5cncn5)C4)o3)cn1)C2 (stereo not shown) [Example 28, 5-(5-(3-(1H-1,2,4-triazol-1-yl)pyrrolidin-1-yl)-1,3,4-oxadiazol-2-yl)-N-(5,6-difluoro-2,3-dihydro-1H-inden-2-yl)pyrimidin-2-amine]",10.9%
2,"Cc1ncn(C2CCN(c3nnc(-c4cnc(NC5Cc6cc(F)c(F)cc6C5)nc4)o3)C2)n1 (stereo not shown) [Example 29, N-(5,6-difluoro-2,3-dihydro-1H-inden-2-yl)-5-(5-(3-(3-methyl-1H-1,2,4-triazol-1-yl)pyrrolidin-1-yl)-1,3,4-oxadiazol-2-yl)pyrimidin-2-amine]",9.2%
3,"CC1(c2c[nH]nn2)CCN(c2nnc(-c3cnc(NC4Cc5cc(F)c(F)cc5C4)nc3)o2)C1 (stereo not shown) [Example 30, N-(5,6-difluoro-2,3-dihydro-1H-inden-2-yl)-5-(5-(3-methyl-3-(1H-1,2,3-triazol-4-yl)pyrrolidin-1-yl)-1,3,4-oxadiazol-2-yl)pyrimidin-2-amine]",96.9%
4,"CC1(c2c[nH]nn2)CCN(c2nnc(-c3cnc(NC4Cc5ccccc5C4)nc3)o2)C1 (stereo not shown) [Example 31, N-(2,3-dihydro-1H-inden-2-yl)-5-(5-(3-methyl-3-(1H-1,2,3-triazol-4-yl)pyrrolidin-1-yl)-1,3,4-oxadiazol-2-yl)pyrimidin-2-amine]",96.8%
5,"CC1(c2c[nH]nn2)CCN(c2nnc(-c3cnc(NCCc4cc(Cl)cc(Cl)c4)nc3)o2)C1 (stereo not shown) [Example 32, N-(3,5-dichlorophenethyl)-5-(5-(3-methyl-3-(1H-1,2,3-triazol-4-yl)pyrrolidin-1-yl)-1,3,4-oxadiazol-2-yl)pyrimidin-2-amine]",21.9%
6,"CC1(c2c[nH]nn2)CCN(c2nnc(-c3cnc(NCc4cc(F)cc(F)c4)nc3)o2)C1 (stereo not shown) [Example 33, N-(3,5-difluorobenzyl)-5-(5-(3-methyl-3-(1H-1,2,3-triazol-4-yl)pyrrolidin-1-yl)-1,3,4-oxadiazol-2-yl)pyrimidin-2-amine]",29.1%
7,"CC1(c2c[nH]nn2)CCN(C(=O)/C=C/c2cnc(NC3Cc4ccccc4C3)nc2)C1 (stereo not shown) [Example 34, (E)-3-(2-((2,3-dihydro-1H-inden-2-yl)amino)pyrimidin-5-yl)-1-(3-methyl-3-(1H-1,2,3-triazol-4-yl)pyrrolidin-1-yl)prop-2-en-1-one]",88.4%
8,"Cn1cc(C2CCN(c3nnc(-c4cnc(NC5Cc6cc(F)c(F)cc6C5)nc4)o3)C2)nn1 (stereo not shown) [Example 35, N-(5,6-difluoro-2,3-dihydro-1H-inden-2-yl)-5-(5-(3-(1-methyl-1H-1,2,3-triazol-4-yl)pyrrolidin-1-yl)-1,3,4-oxadiazol-2-yl)pyrimidin-2-amine]",1.3%
9,"Fc1ccc2c(c1)CC(Nc1ncc(-c3nnc(N4CCC(c5c[nH]nn5)C4)o3)cn1)C2 (stereo not shown) [Example 36, 5-(5-(3-(1H-1,2,3-triazol-4-yl)pyrrolidin-1-yl)-1,3,4-oxadiazol-2-yl)-N-(5-fluoro-2,3-dihydro-1H-inden-2-yl)pyrimidin-2-amine]",97.4%
10,"Clc1ccc2c(c1)CC(Nc1ncc(-c3nnc(N4CCC(c5c[nH]nn5)C4)o3)cn1)C2 (stereo not shown) [Example 37, 5-(5-(3-(1H-1,2,3-triazol-4-yl)pyrrolidin-1-yl)-1,3,4-oxadiazol-2-yl)-N-(5-chloro-2,3-dihydro-1H-inden-2-yl)pyrimidin-2-amine]",97.9%
11,"Fc1cc2c(cc1F)CC(Nc1ncc(-c3nnc(N4CCC(c5c[nH]cn5)C4)o3)cn1)C2 (stereo not shown) [Example 38, 5-(5-(3-(1H-imidazol-4-yl)pyrrolidin-1-yl)-1,3,4-oxadiazol-2-yl)-N-(5,6-difluoro-2,3-dihydro-1H-inden-2-yl)pyrimidin-2-amine]",55%
12,"Fc1cc2c(cc1F)CC(Nc1ncc(-c3nnc(N4CC(c5c[nH]nn5)C4)o3)cn1)C2 [Example 39, 5-(5-(3-(1H-1,2,3-triazol-4-yl)azetidin-1-yl)-1,3,4-oxadiazol-2-yl)-N-(5,6-difluoro-2,3-dihydro-1H-inden-2-yl)pyrimidin-2-amine]",98%
13,"O=C(/C=C/c1cnc(NC2Cc3cc(F)c(F)cc3C2)nc1)N1CC(c2c[nH]nn2)C1 [Example 40, (E)-1-(3-(1H-1,2,3-triazol-4-yl)azetidin-1-yl)-3-(2-((5,6-difluoro-2,3-dihydro-1H-inden-2-yl)amino)pyrimidin-5-yl)prop-2-en-1-one]",98.6%
14,"Cn1nncc1C1CN(c2nnc(-c3cnc(NC4Cc5cc(F)c(F)cc5C4)nc3)o2)C1 [Example 41, N-(5,6-difluoro-2,3-dihydro-1H-inden-2-yl)-5-(5-(3-(1-methyl-1H-1,2,3-triazol-5-yl)azetidin-1-yl)-1,3,4-oxadiazol-2-yl)pyrimidin-2-amine]",70.6%
15,"c1ccc2c(c1)CC(Nc1ncc(-c3nnc(N4CC(c5c[nH]nn5)C4)o3)cn1)C2 [Example 42, 5-(5-(3-(1H-1,2,3-triazol-4-yl)azetidin-1-yl)-1,3,4-oxadiazol-2-yl)-N-(2,3-dihydro-1H-inden-2-yl)pyrimidin-2-amine]",97.8%
16,"Fc1cc2c(cc1F)CC(Nc1ncc(C3CC(N4CC(c5c[nH]nn5)C4)=NO3)cn1)C2 (stereo not shown) [Example 43, 5-(3-(3-(1H-1,2,3-triazol-4-yl)azetidin-1-yl)-4,5-dihydroisoxazol-5-yl)-N-(5,6-difluoro-2,3-dihydro-1H-inden-2-yl)pyrimidin-2-amine]",35.4%
17,"O=C(CCc1cnc(NC2Cc3cc(F)c(F)cc3C2)nc1)N1CC(c2c[nH]nn2)C1 [Example 44, 1-(3-(1H-1,2,3-triazol-4-yl)azetidin-1-yl)-3-(2-((5,6-difluoro-2,3-dihydro-1H-inden-2-yl)amino)pyrimidin-5-yl)propan-1-one]",51.5%
18,"Fc1cc2c(cc1F)CC(Nc1ncc(-c3cc(N4CC(c5c[nH]nn5)C4)no3)cn1)C2 [Example 45, 5-(3-(3-(1H-1,2,3-triazol-4-yl)azetidin-1-yl)isoxazol-5-yl)-N-(5,6-difluoro-2,3-dihydro-1H-inden-2-yl)pyrimidin-2-amine]",43%
19,"NS(=O)(=O)C1CN(c2nnc(-c3cnc(NC4Cc5cc(F)c(F)cc5C4)nc3)o2)C1 [Example 46, 1-(5-(2-((5,6-difluoro-2,3-dihydro-1H-inden-2-yl)amino)pyrimidin-5-yl)-1,3,4-oxadiazol-2-yl)azetidine-3-sulfonamide]",27.1%
20,"COC(=O)C1CN(c2nnc(-c3cnc(NC4Cc5cc(F)c(F)cc5C4)nc3)o2)C1 [Example 47, methyl 1-(5-(2-((5,6-difluoro-2,3-dihydro-1H-inden-2-yl)amino)pyrimidin-5-yl)-1,3,4-oxadiazol-2-yl)azetidine-3-carboxylate]",7.5%
21,"Fc1cc(F)cc(CNc2ncc(-c3nnc(N4CC(c5c[nH]nn5)C4)o3)cn2)c1 [Example 48, 5-(5-(3-(1H-1,2,3-triazol-4-yl)azetidin-1-yl)-1,3,4-oxadiazol-2-yl)-N-(3,5-difluorobenzyl)pyrimidin-2-amine]",39.2%
22,"OC1CN(c2nnc(-c3cnc(NC4Cc5cc(F)c(F)cc5C4)nc3)o2)C1 [Example 49, 1-(5-(2-((5,6-difluoro-2,3-dihydro-1H-inden-2-yl)amino)pyrimidin-5-yl)-1,3,4-oxadiazol-2-yl)azetidin-3-ol]",11%
23,"O=C(O)C1CN(c2nnc(-c3cnc(NC4Cc5cc(F)c(F)cc5C4)nc3)o2)C1 [Example 50, 1-(5-(2-((5,6-difluoro-2,3-dihydro-1H-inden-2-yl)amino)pyrimidin-5-yl)-1,3,4-oxadiazol-2-yl)azetidine-3-carboxylic acid]",14%
24,"CC1(c2c[nH]nn2)CN(c2nnc(-c3cnc(NC4Cc5cc(F)c(F)cc5C4)nc3)o2)C1 [Example 51, N-(5,6-difluoro-2,3-dihydro-1H-inden-2-yl)-5-(5-(3-methyl-3-(1H-1,2,3-triazol-4-yl)azetidin-1-yl)-1,3,4-oxadiazol-2-yl)pyrimidin-2-amine]",91.8%
25,"COC(=O)CC1CN(c2nnc(-c3cnc(NC4Cc5cc(F)c(F)cc5C4)nc3)o2)C1 [Example 52, Methyl 2-(1-(5-(2-((5,6-difluoro-2,3-dihydro-1H-inden-2-yl)amino)pyrimidin-5-yl)-1,3,4-oxadiazol-2-yl)azetidin-3-yl)acetate]",21.9%
26,"O=C(O)CC1CN(c2nnc(-c3cnc(NC4Cc5cc(F)c(F)cc5C4)nc3)o2)C1 [Example 53, 2-(1-(5-(2-((5,6-difluoro-2,3-dihydro-1H-inden-2-yl)amino)pyrimidin-5-yl)-1,3,4-oxadiazol-2-yl)azetidin-3-yl)acetic acid]",24.7%
27,"Fc1cc2c(cc1F)CC(Nc1ccc(-c3nnc(N4CC(c5c[nH]nn5)C4)o3)cn1)C2 [Example 54, 5-(5-(3-(1H-1,2,3-triazol-4-yl)azetidin-1-yl)-1,3,4-oxadiazol-2-yl)-N-(5,6-difluoro-2,3-dihydro-1H-inden-2-yl)pyridin-2-amine]",23.4%
28,"CS(=O)(=O)OC1CN(c2nnc(-c3cnc(NC4Cc5cc(F)c(F)cc5C4)nc3)o2)C1 [Example 55, 1-(5-(2-((5,6-difluoro-2,3-dihydro-1H-inden-2-yl)amino)pyrimidin-5-yl)-1,3,4-oxadiazol-2-yl)azetidin-3-yl methanesulfonate]",17.6%
